{"source": "patent US20180117148A1", "about": "“COMPOUNDS, PHARMACEUTICAL COMPOSITIONS AND METHODS OF TREATMENTS OF IMMUNE RELATED DISEASES AND DISORDERS” (priority 2016, published 2018)", "key": {"[1]": {"system": "inflammatory joint diseases like rheumatoid arthritis (RA) and psoriatic arthritis", "details": "etanercept in inflammatory joint diseases (RA, psoriatic arthritis); background figure; cited from earlier work"}, "[2]": {"system": "patients with either rheumatoid or psoriatic arthritis", "assay": "Retrospective community-based study of etanercept with adjunctive neuroregulatory medications, 28-joint count (swollen and tender)", "format": "in vivo, human", "method": "A retrospective, community-based study assessed consecutive patients initiating biologic treatment of inflammatory arthritis. Improved outcomes were measured by a 28-joint count (swollen and tender). […] Consecutive patients with either rheumatoid or psoriatic arthritis initiated etanercept (25 mg/BIW). For partial response, neuroregulatory medications were added. Neuroregulatory medication options included bedtime dosing of either lorazepam or clonazepam, pramipexole, trazodone, other antidepressants and anticonvulsants.\nPrimary outcome: “≥70% reduction in 28-joint count (tender and swollen). Statistical analysis: LOCF and logistic regression (see data in FIGS. 1 and 2)."}}, "note": "Several values for one entry are separate records, joined by “and”; a condition that tells them apart may be missing. Identical values can stand only once.", "data": [{"substance": "etanercept", "values": [{"measurement": "patients achieving American College of Rheumatology 70% improvement (ACR70) response", "setting": "[1]", "result": "About 27%"}, {"measurement": "patients receiving disease activity score (DAS) remission response", "setting": "[1]", "result": 20.5, "unit": "%"}, {"measurement": "patients in whom NSAIDs were discontinued", "setting": "[2]; 14 of 29 on NSAIDs at baseline", "result": 48, "unit": "%"}, {"measurement": "patients in whom other DMARDs were discontinued", "setting": "[2]; 22 of 28 on other DMARDs at baseline", "result": 79, "unit": "%"}, {"measurement": "patients in whom methotrexate was discontinued", "setting": "[2]; 24 of 32 on methotrexate at baseline (19.14 mg/wk)", "result": 75, "unit": "%"}, {"measurement": "patients in whom prednisone was discontinued", "setting": "[2]; 26 of 42 on prednisone at baseline (6.7 mg/d)", "result": 62, "unit": "%"}, {"measurement": "patients achieving ≥70% reduction in joint count", "setting": "[2]; by BOCF, 66 patients, etanercept 25 mg BIW, neuroregulatory medications added for partial response", "result": 74, "unit": "%"}, {"measurement": "patients achieving ≥70% reduction in 28-joint count (tender and swollen), primary outcome", "setting": "[2]; by LOCF, 52/66 patients, etanercept 25 mg BIW, neuroregulatory medications added for partial response (36/66), p<0.001", "result": 79, "unit": "%"}, {"measurement": "mean 28-joint count after addition of etanercept", "setting": "[2]; decreased from baseline 11.6±9.0, 66 patients, etanercept 25 mg BIW, neuroregulatory medications added for partial response", "result": "1.3 and 1.3±4.3"}]}]}
